Results on two compounds are retold here after patent US12357680B2, “Inhibition of histone methyl transferases to treat cancer” (Albert-Ludwigs-Universitat Freiburg, priority 2018, dated 2025).

Assay [1] deals with T1, KMT9 (Homo sapiens (Human), UniProt Q9Y5N5). The experiment in a line: Methyltransferase panel, 10-dose IC50 mode. Format: biochemical. To be noted: Substrate: Histone H4; 1 μM SAM; read-out: Compound IC50* (M) KMI9542321. The method, then:
(§1) Compound 72b was further tested against a plurality of methyltransferases as described in the following. […] Reactions were carried out at 1 μM SAM. Curve fits were performed where the enzyme activities at the highest concentration of compounds were less than 65%. […] Compound 72b is referred to as KMI9542321 in the table below.

Assay [2] concerns the target T1, KMT9. The experiment in a line: Methylation assay to test KMT9-inhibition ([3H]SAM, filter binding, scintillation). Format: biochemical. The conditions noted are these: ETF1 or histone H4 substrate. The method, then: Methylation assays were performed to test inhibition of the KMT9 methyltransferase activity by compound 72b. To test the compound, 1 μL of the compound, dissolved in DMSO at different concentrations, was added to a 0.5 ml tube (Brand Gmbh&Co KG). Afterwards, 4 μL of assay buffer (50 mM BTP, 1 mM MgCl2, 1 mM DTT, 0.01% TX-100, pH 8.5) were added together with 10 μL of 2× solution of KMT9 diluted in assay buffer (final concentration 0.025-0.6 μM). The solutions were mixed and incubated for 20 min at room temperature, shaking at 300 rpm. Afterwards, 5 μL of 4× Protein-SAM mix was added (final concentrations: 5 μM ETF1 or histone H4, SAM: 1-2.5 μM (including 30% of radioactively labelled [3H]SAM)) to a final assay volume of 20 μL. The reaction mixtures were mixed and incubated in an Eppendorf thermomixer comfort for 2 h at 30° C., shaking at 300 rpm. The reaction was quenched using 5 μL of 50% trichloroacetic acid (TCA) in water, mixed and incubated for 5 min at room temperature without shaking. […] The scintillation signal was measured for 3×1 min using Tri-Carb 2910 TR (PerkinElmer) scintillation counter in [^3H] […]

Assay [3] relates to plurality of methyltransferases including DOT1L. The experiment in a line: Specificity across a plurality of methyltransferases. Format: biochemical. To be noted: 10-dose IC50 mode starting at 10 μM, 1 μM SAM. The method, then:
as §1

For assay [4], the target named is T1, KMT9. The experiment in a line: Microscale thermophoresis (MST) KMT9-binding. The conditions noted are these: His-tag labelled KMT9 20 nM; read-out: Binding affinity in MST. As to the method: To determine the binding affinity of the compound to KMT9, microscale thermophoresis (MST) analysis was performed with a NanoTemper Monolith NT.115 instrument (NanoTemper Technologies GmbH). KMT9 was labelled with a RED-Tris-NTA labelling kit (NanoTemper Technologies GmbH) based on the manufacturer's instructions. Buffer including 25 mM HEPES (pH 7.5), 100 mM NaCl, 1 mM DTT and 0.05% Tween was used for the reaction buffer. Varying concentrations of the compound were titrated against His-tag labelled KMT9 proteins (20 nM). Samples were loaded into standard Capillaries (NanoTemper Technologies GmbH) and MST measurements were performed using 40% MST power and 100% LED power. For each set of binding experiments, MST measurement was carried out with Binding Affinity module in MO. Control program under Nano-RED Excitation. Datasets were processed with the MO. Affinity Analysis software (NanoTemper Technologies GmbH).
In general terms: MST reads how a fluorescent partner responds to local heating, with and without ligand.

Assay [5] deals with T1, KMT9. The experiment in a line: Thermal shift assay of KMT9 upon inhibitor binding. The conditions noted are these: thermal shift at 500 μM. As to the method: For inhibitor testing, 1 μL of the compound, dissolved in DMSO at different concentrations, were added to a 96 well hard-shell PCR plate (Bio-Rad). Afterwards 4 μL of assay buffer (50 mM BTP, 1 mM MgCl2, 1 mM DTT, pH 8.5) were added, followed by 10 μL of 2×KMT9 (final concentration 2 μM) in assay buffer. After addition of 5 μL 4×SYPRO-Orange (Sigma) (final concentration 5×), the plate was spun for 1 min at 700 rpm, then shaken at 600 rpm for 15 minutes. After another […] spinning at 700 rpm for 1 min, measurement was performed using a CFX96 Touch Real-Time PCR Detection System (Bio-Rad). The plate was equilibrated at 20° C. for 4 minutes before heating gradually by 1° C. every 15 seconds until 95° C. After every step, the fluorescence was measured in FRET mode. The thermal shift at 500 μM is detected in K (Kelvin). For Example 9o, the thermal shift at 250 μM is detected in K (Kelvin). The obtained thermal shift obtained by adding the tested compound is shown in the table below as follows: shift ≤5 K is denoted with a “+”, shift >5 and ≤15 K is denoted with “++”, and shift >15 K is denoted with “+++”.

For another assay, the target named is SETD2 (Homo sapiens (Human), UniProt Q9BYW2). The experiment in a line: Methyltransferase panel, 10-dose IC50 mode. Format: biochemical. The conditions noted are these: Substrate: Nucleosomes; 1 μM SAM; read-out: Control IC50*. As to the method: as §1
The next assay concerns the target SMYD3 (Homo sapiens (Human), UniProt Q9H7B4). The experiment in a line: Methyltransferase panel, 10-dose IC50 mode. The format is biochemical. To be noted: Substrate: MEKK2; 1 μM SAM; read-out: Control IC50*. The method, then: as §1
Another assay has as its target NRMT1 (Homo sapiens (Human), UniProt Q9BV86). The experiment in a line: Methyltransferase panel, 10-dose IC50 mode. The conditions noted are these: Substrate: RCC1; 1 μM SAM; read-out: Control IC50*. The format is biochemical. As to the method: as §1
The target in a further assay is NRMT2 (Homo sapiens (Human), UniProt Q5VVY1). The experiment in a line: Methyltransferase panel, 10-dose IC50 mode. The conditions noted are these: Substrate: RCC1; 1 μM SAM; read-out: Control IC50*. The format is biochemical. As to the method: as §1
For the next assay, the target named is DNMT3b (Homo sapiens (Human), UniProt Q9UBC3). The experiment in a line: Methyltransferase panel, 10-dose IC50 mode. The format is biochemical. To be noted: Substrate: Lambda DNA; 1 μM SAM; read-out: Control IC50*. As to the method:
as §1

Another assay deals with SUV420H1TV2 (Homo sapiens (Human), UniProt Q4FZB7). The experiment in a line: Methyltransferase panel, 10-dose IC50 mode. To be noted: Substrate: Nucleosomes; 1 μM SAM; read-out: Control IC50*. The format is biochemical. The method, then: as §1
The target in a further assay is SUV39H2 (Homo sapiens (Human), UniProt Q9H5I1). The experiment in a line: Methyltransferase panel, 10-dose IC50 mode. Format: biochemical. To be noted: Substrate: Histone H3; 1 μM SAM; read-out: Control IC50*. The method, then: as §1
In another assay the target is DNMT3a (Homo sapiens (Human), UniProt Q9Y6K1). The experiment in a line: Methyltransferase panel, 10-dose IC50 mode. Format: biochemical. To be noted: Substrate: Lambda DNA; 1 μM SAM; read-out: Control IC50*. As to the method:
as §1

The next assay addresses SET7/9 (Homo sapiens (Human), UniProt Q8WTS6). The experiment in a line: Methyltransferase panel, 10-dose IC50 mode. Format: biochemical. The conditions noted are these: Substrate: Core Histone; 1 μM SAM; read-out: Control IC50*. The method, then:
as §1

A further assay concerns the target MLL3 Complex (Homo sapiens (Human), UniProt Q8NEZ4). The experiment in a line: Methyltransferase panel, 10-dose IC50 mode. The format is biochemical. The conditions noted are these: Substrate: Core Histone; 1 μM SAM; read-out: Control IC50*. As to the method: as §1
In another assay the target is MLL1 Complex (Homo sapiens (Human), UniProt Q03164). The experiment in a line: Methyltransferase panel, 10-dose IC50 mode. The conditions noted are these: Substrate: Nucleosomes; 1 μM SAM; read-out: Control IC50*. Format: biochemical. As to the method:
as §1

A further assay concerns the target PRMT3 (Homo sapiens (Human), UniProt O60678). The experiment in a line: Methyltransferase panel, 10-dose IC50 mode. Format: biochemical. The conditions noted are these: Substrate: Histone H4; 1 μM SAM; read-out: Control IC50*. The method, then:
as §1

The target in the next assay is GLP (Homo sapiens (Human), UniProt Q9H9B1). The experiment in a line: Methyltransferase panel, 10-dose IC50 mode. To be noted: Substrate: Histone H3 (1-21); 1 μM SAM; read-out: Control IC50*. Format: biochemical. As to the method:
as §1

The next assay deals with PRMT6 (Homo sapiens (Human), UniProt Q96LA8). The experiment in a line: Methyltransferase panel, 10-dose IC50 mode. The format is biochemical. The method, then: as §1
Another assay addresses DNMT3b/3L (Homo sapiens (Human), UniProt Q9UBC3). The experiment in a line: Methyltransferase panel, 10-dose IC50 mode. The format is biochemical. To be noted: Substrate: Lambda DNA; 1 μM SAM; read-out: Control IC50*. As to the method:
as §1

The nature of assay [6]: Methyltransferase panel, 10-dose IC50 mode. Format: biochemical. The conditions noted are these: Substrate: Core Histone; 1 μM SAM; read-out: Control IC50*. The method, then:
as §1

For a further assay, the target named is NSD1 (Homo sapiens (Human), UniProt Q96L73). The experiment in a line: Methyltransferase panel, 10-dose IC50 mode. The format is biochemical. The conditions noted are these: Substrate: Nucleosomes; 1 μM SAM; read-out: Control IC50*. As to the method: as §1
The next assay deals with SET1b Complex (Homo sapiens (Human), UniProt Q9UPS6). The experiment in a line: Methyltransferase panel, 10-dose IC50 mode. Format: biochemical. The conditions noted are these: Substrate: Core Histone; 1 μM SAM; read-out: Control IC50*. As to the method: as §1

T1 sequence (Q9Y5N5 whole entry): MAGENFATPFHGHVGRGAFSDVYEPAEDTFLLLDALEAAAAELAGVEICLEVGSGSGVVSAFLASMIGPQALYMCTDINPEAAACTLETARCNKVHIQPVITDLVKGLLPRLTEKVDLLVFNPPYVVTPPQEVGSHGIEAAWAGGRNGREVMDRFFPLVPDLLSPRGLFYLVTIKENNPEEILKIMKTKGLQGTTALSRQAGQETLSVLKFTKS
T1 sequence (Q9UI30 whole entry partner): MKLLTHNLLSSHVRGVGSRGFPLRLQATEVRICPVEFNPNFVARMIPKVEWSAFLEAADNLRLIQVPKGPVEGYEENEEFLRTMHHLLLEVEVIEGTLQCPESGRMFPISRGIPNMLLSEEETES
SMYD3, sequence (Q9H7B4 whole entry): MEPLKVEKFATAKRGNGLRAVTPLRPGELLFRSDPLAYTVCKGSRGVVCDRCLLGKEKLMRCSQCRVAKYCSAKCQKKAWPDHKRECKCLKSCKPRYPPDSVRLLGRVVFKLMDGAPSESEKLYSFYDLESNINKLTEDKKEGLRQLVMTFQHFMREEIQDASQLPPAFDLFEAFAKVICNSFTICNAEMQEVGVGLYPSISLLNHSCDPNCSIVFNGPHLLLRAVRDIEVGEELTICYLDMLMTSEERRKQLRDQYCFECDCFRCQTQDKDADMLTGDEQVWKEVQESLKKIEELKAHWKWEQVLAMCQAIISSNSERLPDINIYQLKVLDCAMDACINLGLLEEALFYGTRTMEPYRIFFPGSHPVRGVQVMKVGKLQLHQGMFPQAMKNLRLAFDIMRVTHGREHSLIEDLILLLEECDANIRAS
SETD2, sequence (Q9BYW2 whole entry): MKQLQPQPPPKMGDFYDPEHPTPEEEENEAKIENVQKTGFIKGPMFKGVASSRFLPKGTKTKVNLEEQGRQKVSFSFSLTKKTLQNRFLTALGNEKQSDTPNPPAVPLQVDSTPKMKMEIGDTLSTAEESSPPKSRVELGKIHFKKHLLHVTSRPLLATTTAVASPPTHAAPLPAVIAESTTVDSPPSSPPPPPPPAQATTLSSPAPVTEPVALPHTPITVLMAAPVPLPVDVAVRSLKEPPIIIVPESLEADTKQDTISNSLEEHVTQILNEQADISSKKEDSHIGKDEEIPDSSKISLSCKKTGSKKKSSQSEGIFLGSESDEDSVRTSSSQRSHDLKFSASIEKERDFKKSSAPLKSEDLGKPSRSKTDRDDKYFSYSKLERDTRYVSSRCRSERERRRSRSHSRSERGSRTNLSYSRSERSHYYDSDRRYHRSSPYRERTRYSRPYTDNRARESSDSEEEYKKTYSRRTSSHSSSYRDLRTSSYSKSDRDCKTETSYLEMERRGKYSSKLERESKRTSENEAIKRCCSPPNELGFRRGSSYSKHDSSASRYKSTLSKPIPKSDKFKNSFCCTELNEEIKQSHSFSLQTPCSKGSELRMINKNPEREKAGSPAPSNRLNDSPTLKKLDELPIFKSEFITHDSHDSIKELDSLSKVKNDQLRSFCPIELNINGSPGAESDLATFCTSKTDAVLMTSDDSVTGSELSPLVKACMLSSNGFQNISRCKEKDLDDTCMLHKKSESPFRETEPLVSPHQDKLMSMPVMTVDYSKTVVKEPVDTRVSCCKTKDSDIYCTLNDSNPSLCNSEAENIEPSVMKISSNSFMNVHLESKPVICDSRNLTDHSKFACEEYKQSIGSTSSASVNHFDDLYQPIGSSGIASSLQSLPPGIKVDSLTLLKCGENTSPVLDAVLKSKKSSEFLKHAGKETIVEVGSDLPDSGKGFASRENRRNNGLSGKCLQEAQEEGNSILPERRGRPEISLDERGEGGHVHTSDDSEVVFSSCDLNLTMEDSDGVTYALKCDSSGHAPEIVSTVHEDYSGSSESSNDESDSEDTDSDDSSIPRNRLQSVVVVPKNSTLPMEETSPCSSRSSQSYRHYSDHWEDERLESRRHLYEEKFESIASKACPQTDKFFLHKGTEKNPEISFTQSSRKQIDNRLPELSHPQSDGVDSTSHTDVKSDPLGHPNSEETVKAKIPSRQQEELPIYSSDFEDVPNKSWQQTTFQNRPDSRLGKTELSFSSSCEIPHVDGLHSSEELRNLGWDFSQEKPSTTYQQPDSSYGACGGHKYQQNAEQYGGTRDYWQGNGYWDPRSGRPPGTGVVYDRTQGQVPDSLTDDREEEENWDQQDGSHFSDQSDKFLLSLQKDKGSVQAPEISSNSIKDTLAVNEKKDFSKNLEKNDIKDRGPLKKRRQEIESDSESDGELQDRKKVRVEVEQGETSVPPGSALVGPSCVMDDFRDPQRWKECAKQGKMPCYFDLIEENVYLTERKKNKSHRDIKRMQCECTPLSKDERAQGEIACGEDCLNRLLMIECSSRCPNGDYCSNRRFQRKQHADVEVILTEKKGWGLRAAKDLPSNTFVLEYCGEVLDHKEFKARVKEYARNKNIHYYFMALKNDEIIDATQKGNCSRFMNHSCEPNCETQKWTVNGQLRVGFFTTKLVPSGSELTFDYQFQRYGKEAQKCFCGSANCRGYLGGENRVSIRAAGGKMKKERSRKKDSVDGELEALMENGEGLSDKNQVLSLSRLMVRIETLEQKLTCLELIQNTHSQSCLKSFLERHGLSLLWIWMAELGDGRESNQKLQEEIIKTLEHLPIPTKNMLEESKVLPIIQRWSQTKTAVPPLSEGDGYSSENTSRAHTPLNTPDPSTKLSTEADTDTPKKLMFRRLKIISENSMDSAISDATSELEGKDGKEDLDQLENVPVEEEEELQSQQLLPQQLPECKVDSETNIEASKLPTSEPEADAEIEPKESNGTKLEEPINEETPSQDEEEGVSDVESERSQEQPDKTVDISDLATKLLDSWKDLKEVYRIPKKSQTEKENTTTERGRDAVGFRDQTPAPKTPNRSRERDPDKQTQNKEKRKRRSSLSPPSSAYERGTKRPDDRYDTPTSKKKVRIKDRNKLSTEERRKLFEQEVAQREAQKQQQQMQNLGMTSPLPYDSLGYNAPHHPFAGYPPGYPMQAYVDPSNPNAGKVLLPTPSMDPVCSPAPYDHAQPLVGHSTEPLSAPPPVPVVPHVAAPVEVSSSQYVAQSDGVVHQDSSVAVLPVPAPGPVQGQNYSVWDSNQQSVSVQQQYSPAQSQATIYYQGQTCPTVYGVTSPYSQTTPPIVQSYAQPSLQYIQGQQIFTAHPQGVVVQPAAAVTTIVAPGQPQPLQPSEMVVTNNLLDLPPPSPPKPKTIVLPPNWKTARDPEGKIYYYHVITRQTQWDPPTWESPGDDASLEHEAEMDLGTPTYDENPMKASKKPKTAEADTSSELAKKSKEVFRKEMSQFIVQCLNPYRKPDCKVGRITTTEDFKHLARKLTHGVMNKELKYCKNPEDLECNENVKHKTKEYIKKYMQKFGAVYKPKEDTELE
SET7/9, sequence (Q8WTS6 whole entry): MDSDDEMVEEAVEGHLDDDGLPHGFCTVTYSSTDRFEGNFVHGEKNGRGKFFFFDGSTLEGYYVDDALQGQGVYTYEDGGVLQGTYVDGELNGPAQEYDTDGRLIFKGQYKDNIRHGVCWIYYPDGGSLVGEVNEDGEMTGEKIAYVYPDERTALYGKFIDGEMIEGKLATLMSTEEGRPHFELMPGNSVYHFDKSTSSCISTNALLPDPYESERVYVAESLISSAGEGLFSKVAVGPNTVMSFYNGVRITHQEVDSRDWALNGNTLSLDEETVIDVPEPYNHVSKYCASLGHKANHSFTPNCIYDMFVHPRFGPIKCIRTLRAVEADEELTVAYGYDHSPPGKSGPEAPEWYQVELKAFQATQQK
SUV39H2, sequence (Q9H5I1 whole entry): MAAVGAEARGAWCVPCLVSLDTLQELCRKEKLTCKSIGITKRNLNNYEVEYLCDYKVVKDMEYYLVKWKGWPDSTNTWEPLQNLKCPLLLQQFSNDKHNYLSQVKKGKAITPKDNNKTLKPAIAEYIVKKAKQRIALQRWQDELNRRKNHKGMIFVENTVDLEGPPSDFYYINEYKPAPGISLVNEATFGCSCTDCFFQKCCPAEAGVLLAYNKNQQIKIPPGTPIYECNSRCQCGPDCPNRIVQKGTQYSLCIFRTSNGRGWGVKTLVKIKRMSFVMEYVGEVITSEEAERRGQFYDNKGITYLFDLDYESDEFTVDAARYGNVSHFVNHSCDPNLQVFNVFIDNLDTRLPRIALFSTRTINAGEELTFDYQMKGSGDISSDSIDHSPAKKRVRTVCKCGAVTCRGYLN
PRMT3, sequence (O60678 whole entry, species assumed): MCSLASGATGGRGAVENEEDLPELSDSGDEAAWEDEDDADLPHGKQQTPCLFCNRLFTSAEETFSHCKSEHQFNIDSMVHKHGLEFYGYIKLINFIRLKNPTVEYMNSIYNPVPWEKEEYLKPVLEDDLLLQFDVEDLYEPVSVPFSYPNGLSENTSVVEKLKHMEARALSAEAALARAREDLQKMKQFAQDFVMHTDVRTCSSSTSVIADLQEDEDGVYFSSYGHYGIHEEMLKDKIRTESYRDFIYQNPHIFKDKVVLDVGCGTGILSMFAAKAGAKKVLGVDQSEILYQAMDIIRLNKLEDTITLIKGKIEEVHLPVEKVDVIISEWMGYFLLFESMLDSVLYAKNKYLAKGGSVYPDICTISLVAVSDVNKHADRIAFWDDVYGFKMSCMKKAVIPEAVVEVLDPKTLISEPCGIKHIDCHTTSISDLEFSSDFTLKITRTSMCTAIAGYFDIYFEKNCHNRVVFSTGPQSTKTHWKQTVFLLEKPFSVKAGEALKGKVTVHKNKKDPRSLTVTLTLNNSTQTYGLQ
PRMT6, sequence (Q96LA8 whole entry, species assumed): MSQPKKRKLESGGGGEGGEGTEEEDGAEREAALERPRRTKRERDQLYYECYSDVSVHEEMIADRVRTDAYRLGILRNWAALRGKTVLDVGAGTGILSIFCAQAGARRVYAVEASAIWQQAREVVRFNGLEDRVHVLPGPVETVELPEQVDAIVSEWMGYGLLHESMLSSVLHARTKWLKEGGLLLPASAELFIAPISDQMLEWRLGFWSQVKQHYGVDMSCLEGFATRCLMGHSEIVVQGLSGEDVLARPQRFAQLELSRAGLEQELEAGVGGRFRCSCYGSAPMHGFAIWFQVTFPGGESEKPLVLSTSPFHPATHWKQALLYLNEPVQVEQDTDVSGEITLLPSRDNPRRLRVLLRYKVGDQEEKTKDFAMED

In general, IC50 refers to the concentration that inhibits the measured activity by half. The term ΔTm denotes the shift of the melting midpoint relative to a reference. Take `CNc1ncnc2c1ccn2[C@@H]1C[C@H](CN(CCCNCCc2ccccc2)CC[C@H](N)C(=O)O)[C@@H](O)[C@H]1O` [Compound 72b, (S)-2-amino-4-((((1R,2R,3S,4R)-2,3-dihydroxy-4-(4-(methylamino)-7H-pyrrolo[2,3-d]pyrimidin-7-yl)cyclopentyl)methyl)(3-(phenethylamino)propyl)amino)butanoic acid]: the IC50 at KMT9 [1] was 2e-07 M; at KMT9 [2], < 100 nM. In addition, the “specificity for KMT9-inhibition versus other methyltransferases” value in [3] was “specific for KMT9-inhibition”. Also, the Kd at KMT9 [4] was < 100 nM. The ΔTm at 500 µM on KMT9 [5] lay within 5 to 15 °C.
As for `Nc1ncnc2c1ncn2[C@@H]1O[C@H](CSCC[C@H](N)C(=O)O)[C@@H](O)[C@H]1O` [SAH, S-(5′-Adenosyl)-L-homocysteine], the concentration for half-maximal inhibition (IC50) at SETD2 stood at 4.08 µM; at SMYD3 it was 12.9 µM; at NRMT1, 1070 nM; at NRMT2, 643 nM; on DNMT3b, 35.2 nM; at SUV420H1TV2, 139 µM. The concentration for half-maximal inhibition (IC50) on SUV39H2 worked out at 102 µM; at DNMT3a, 329 nM; at SET7/9, 281 µM; on MLL3 Complex it was 25.4 µM; at MLL1 Complex, 1170 nM; on PRMT3, 1880 nM. For the same compound, the IC50 on GLP stood at 1210 nM; on PRMT6 it was 199 nM; at DNMT3b/3L it was 32.1 nM; in assay [6], 26.4 µM; at NSD1 it was 4.33 µM; on SET1b Complex it was 5.27 µM.
